Laboratory results from patent US8242280B2, “Fused ring heterocycle kinase modulators” (SGX Pharmaceuticals, Inc., priority 2007, dated 2012).

How the values were obtained:
Ba/F3 cells, ABL1 T315I = Ba/F3 cells, ABL1 T315I (Homo sapiens, UniProt P00519, T315I, cells depend on it); test: 96-well XTT cell survival assay, Ba/F3 ABL1 T315I; type: cell-based; details: 72 hours, read-out: ABL1 T315I XTT [Ba/F3] IC50
Description: (§1) MV4-11 and THP cells were maintained in Iscove's Modified Dulbecco's Medium supplemented with 10% fetal bovine serum (FBS) and penicillin/streptomycin, Ba/F3 cells were maintained in RPMI 1640 supplemented with 10% FBS, penicillin/streptomycin and 5 ng/ml recombinant mouse IL-3.
(§2) Compounds were tested in the following assays in duplicate.
(§3) 96-well XTT assay: Cells (e.g. BaF3 315I, M351I, or E255K cells) were grown in growth media containing various concentrations of compounds (duplicates) on a 96-well plate for 72 hours at 37° C. The starting cell number was 5000-8000 cells per well and volume was 120 μl. At the end of the 72-hour incubation, 40 μl of XTT labeling mixture (50:1 solution of sodium 3′-[1-(phenylamino-carbonyl)-3,4-tetrazolium]-bis(4-methoxy-6-nitro)benzene sulfonic acid hydrate and Electron-coupling reagent: PMS (N-methyl dibenzopyrazine methyl sulfate) were added to each well of the plate. After an additional 2-6 hours of incubation at 37° C., the absorbance reading at 405 nm with background correction at 650 nm was measured with a spectrophotometer.

Ba/F3 cells, ABL1 WT = Ba/F3 cells, ABL1 WT (Homo sapiens, UniProt P00519); test: 96-well XTT cell survival assay, Ba/F3 ABL1 WT; type: cell-based; details: 72 hours, read-out: ABL1 WT XTT [Ba/F3] IC50
Description: as §1, §2, §3

[1] = target: T1, unphosphorylated T315I Abl kinase domain (Mus musculus, UniProt P00520, T315I); test: c-Abl T315I 0P bioassay (pyruvate kinase/lactate dehydrogenase coupled enzyme assay); type: biochemical; details: zero phosphorylation state (0P), 10 μM ATP, read-out: AbI T315I 0P IC50
T1 construct: purified and unphosphorylated T315I Abl kinase domain; made in house; host or cells: E. coli BL21(DE3) (Codon+RIL or pSA0145 strain)
T1 sequence (P00520 242-493 T315I limits assumed): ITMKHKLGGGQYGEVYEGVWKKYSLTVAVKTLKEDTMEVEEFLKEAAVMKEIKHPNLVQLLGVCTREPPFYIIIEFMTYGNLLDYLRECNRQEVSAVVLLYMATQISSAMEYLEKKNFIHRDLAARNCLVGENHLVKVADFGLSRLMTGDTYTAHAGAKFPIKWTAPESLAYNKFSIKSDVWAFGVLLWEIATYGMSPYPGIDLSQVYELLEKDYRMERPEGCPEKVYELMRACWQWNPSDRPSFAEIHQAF
Description: Although the first of these examples uses the kinase domain of a mutant form of Abl T315I (“Abl T315I KD”), the kinase assays may use various forms of mutant and wild type enzymes, including, for example, the entire protein, the kinase domain, or a portion thereof (e.g. Abl Y393F). The kinases used in the assays may also be of varying phosphorylation states. In the c-Abl example, a mutant kinase at a zero phosphorylation state was used. c-Abl Pyruvate Kinase/Lactate Dehydrogenase Coupled Enzyme Assay
In the c-Abl Pyruvate Kinase (PK)/Lactate Dehydrogenase (LDH) Coupled Assay the protein kinase dependant phosphorylation of a substrate peptide was coupled to the oxidation of NADH. The oxidation of NADH to NAD+ was detected by monitoring a decrease in absorbance at 340 nm.
Materials: Abl substrate peptide=EAIYAAPFAKKK (SEQ ID NO: 1)—OH (Biopeptide, San Diego, Calif.); pNADH (Sigma Cat#N-8129, FW=709.4); 2M MgC12; 1M HEPES buffer, pH 7.5; Phosphoenolpyruvate (PEP) (Sigma Cat#P-7002, FW=234); Lactate dehydrogenase (LDH) (Worthington Biochemical Cat#2756); Pyruvate Kinase (PK) (Sigma Cat#P-9136); ATP (Sigma Cat#A-3377, FW=551); Greiner 384-well UV star plate; and purified and unphosphorylated T315I Abl kinase domain.
Stock Solutions: 10 mM NADH (7.09 mg/ml in miliQH2O) made fresh daily; 10 mM Abl substrate peptide (13.4 mg/ml in miliQH2O) stored at −20° C.; 100 mM HEPES buffer, pH 7.5 (5 ml 1M stock+45 ml miliQH2O); 100 mM MgCl2 (5 ml 2M MgCl2+95 ml dH2O); 100 MM PEP (23.4 mg/ml in dH2O) stored at −20° C.; 10 mM ATP (5.51 mg/ml in dH2O) stored at −20° C. (diluted 50 μl into total of 10 ml miliQH2O daily=50 μM ATP working stock); 1000 U/ml PK (U/mg varies with lot) flash-frozen under liquid N2 and stored at −80° C.; and 1000 U/ml LDH (U/mg varies with lot) flash-frozen under liquid N2 and stored at −80° C.
Standard Assay Setup for 384-well format (50 μl reaction): 300 μM NADH; 10 mM MgCl2; 2 mM PEP; 45U/ml PK; 60 U/ml LDH; 200 μM Abl substrate peptide; 2.5 μl test compound (in DMSO); 2 μg/ml Abl kinase domain; 10 μM ATP; 100 mM HEPES buffer. Positive controls contained DMSO with no test compound. Negative controls contained 5 μl of 0.5M EDTA (50 mM in the assay). The dephosphorylated form of the c-Abl T315I mutant was used in the biochemical screening assays. The kinase reaction was initiated at time t=0 by the addition of ATP.
Activity was measured by following the time-dependent loss of NADH by absorbance spectroscopy at 340 nm. The linear portion of the resulting progress curve was then analyzed by linear regression to get the activity in absorbance units/time, reported as the slope of that best fit line (moles/unit time can be calculated from using molar extinction coefficient for NADH at 340 nm, 6250M^−1 cm^−1).
Data was evaluated using the equation: Z′=1−[3*(σ++σ−)/|μ+−μ−|](Zhang, et al., 1999 J Biomol Screening 4(2) 67-73), where μ denotes the mean and σ the standard deviation. The subscript designates positive or negative controls. The Z′ score for a robust screening assay should be ≧0.50. The typical threshold=μ+−3*σ+. Any value that falls below the threshold was designated a “hit”.
Dose response was analyzed using the equation: y=min+{(max−min)/(1+10^[compound]−logIC50)}, where y is the observed initial slope, max=the slope in the absence of inhibitor, min=the slope at infinite inhibitor, and the IC50 is the [compound] that corresponds to ½ the total observed amplitude (Amplitude=max−min).
To measure modulation, activation, or inhibition of Abl KD, a test compound was added to the assay at a range of concentrations. Inhibitors may inhibit Abl KD activity at an IC50 in the micromolar range, the nanomolar range, or, for example, in the subnanomolar range.
An open-reading frame for c-Abl was amplified from a Mus musculus (mouse) cDNA library prepared from freshly harvested mouse liver using a commercially available kit (invitrogen) by PCR using the following primers: […]
The c-Abl T315I KD (kinase domain) was purified as follows. […]

Compound | IC50 [1] [nM] | GI50 (Ba/F3 cells, ABL1 T315I) [nM] | GI50 (Ba/F3 cells, ABL1 WT) [nM]
COc1ccccc1-c1c[nH]c2ncc(-c3cccc(C(N)CC(=O)N(C)C)c3)cc12 (stereo not drawn) | < 50 | > 1000 | > 1000
COc1ccccc1-c1c[nH]c2ncc(-c3cccc(C(N)CC(=O)N(C)CCN(C)C)c3)cc12 (stereo not drawn) | < 50 | > 1000 | > 1000
COc1ccccc1-c1c[nH]c2ncc(-c3cccc(C(N)CC(=O)N4CCC[C@@H]4CO)c3)cc12 (stereo partly drawn) | < 50 | > 1000 | > 1000
COc1ccccc1-c1n[nH]c2ncc(-c3cccc(C(O)C(=O)N(C)C)n3)cc12 (stereo not drawn) | < 50 | > 1000 | > 1000
COc1ccccc1-c1n[nH]c2ncc(-c3cccc(C(O)C(=O)N(C)CCN(C)C)n3)cc12 (stereo not drawn) | < 50 | > 1000 | > 1000
COc1ccccc1-c1c[nH]c2ncc(-c3cccc(C(O)C(=O)N(C)CCNC4CC4)c3)cc12 (stereo not drawn) | < 50 | < 1000 | < 1000
COc1ccccc1-c1c[nH]c2ncc(-c3cncc(C(O)C(=O)N(C)C(C)C)c3)cc12 (stereo not drawn) | < 50 | < 1000 | > 1000
COc1ccccc1-c1c[nH]c2ncc(-c3cncc(C(O)C(=O)N(C)Cc4ccnn4C)c3)cc12 (stereo not drawn) | < 50 | < 1000 | < 1000
CC[C@H](O)[C@@H](O)c1cccc(-c2cnc3[nH]cc(-c4ccccc4OC)c3c2)c1 | < 50 | < 1000 | < 1000
COc1ccccc1-c1c[nH]c2ncc(-c3cncc([C@@H](O)C(=O)N(C)C)c3)cc12 | < 50 | < 1000 | < 1000
COc1ccc(F)cc1-c1c[nH]c2ncc(-c3cncc(C(O)C(=O)N(C)C)c3)cc12 (stereo not drawn) | < 50 | < 1000 | < 1000
COc1ccc(F)cc1-c1c[nH]c2ncc(-c3cc(C(O)C(=O)N(C)C)c[n+]([O-])c3)cc12 (stereo not drawn) | < 50 | > 1000 | > 1000

Second part, led by results:

IC50 [1] [nM] | Compound | GI50 (Ba/F3 cells, ABL1 T315I) [nM] | GI50 (Ba/F3 cells, ABL1 WT) [nM]
< 50 | COc1ccccc1-c1c[nH]c2ncc(-c3cccc(C(O)C(=O)N(C)C)n3)cc12 (stereo not drawn) | > 1000 | > 1000
< 50 | COc1ccccc1-c1c[nH]c2ncc(-c3cccc(C(O)C(=O)N(C)CCN(C)C)n3)cc12 (stereo not drawn) | > 1000 | > 1000
< 50 | CCN(C)C(=O)C(O)c1cncc(-c2cnc3[nH]cc(-c4ccccc4OC)c3c2)c1 (stereo not drawn) | < 1000 | < 1000
50 to 500 | COc1ccccc1-c1c[nH]c2ncc(-c3cc(C(O)C(=O)N(C)C)ncn3)cc12 (stereo not drawn) | > 1000 | > 1000
< 50 | COc1ccccc1-c1c[nH]c2ncc(-c3ccnc(C(O)C(=O)N(C)C)c3)cc12 (stereo not drawn) | > 1000 | > 1000
< 50 | COc1ccccc1-c1c[nH]c2ncc(-c3cccc(C(F)C(=O)N(C)C)c3)cc12 (stereo not drawn) | > 1000 | > 1000
< 50 | COc1ccccc1-c1c[nH]c2ncc(-c3cc(C(O)C(=O)N(C)C)ccn3)cc12 (stereo not drawn) | > 1000 | > 1000
50 to 500 | COc1ccccc1-c1c[nH]c2ncc(-c3ccnc(C(O)C(=O)N(C)C)n3)cc12 (stereo not drawn) | > 1000 | > 1000
< 50 | CN(C)C(=O)C(O)c1cncc(-c2cnc3[nH]cc(-c4ccc(Cl)cc4)c3c2)c1 (stereo not drawn) | > 1000 | < 1000
< 50 | COc1ccccc1-c1c[nH]c2ncc(-c3cncc([C@H](O)C(=O)N(C)C)c3)cc12 | < 1000 | < 1000
< 50 | CN(C)C(=O)C(O)c1cncc(-c2cnc3[nH]cc(-c4ccc(Cl)c(Cl)c4)c3c2)c1 (stereo not drawn) | > 1000 | > 1000
< 50 | COc1ccccc1-c1c[nH]c2ncc(-c3cncc(C(=O)C(=O)N(C)C)c3)cc12 | < 1000 | < 1000
< 50 | Cc1ccc(-c2c[nH]c3ncc(-c4cncc(C(O)C(=O)N(C)C)c4)cc23)cc1 (stereo not drawn) | > 1000 | > 1000
